Source: patent US6841538B1, “Combination therapy using nucleic acids and radio therapy” (priority 1998, dated 2005)

How the values were obtained:
tumor cells = conditions: Son and Huang 1994; cited from earlier work
MCA 207 tumor [1] = test: Tumor growth, combination with pINEX-IL-12 in INEX 324; assay type: in vivo, C57 BL/6 mice; conditions: subtherapeutic vincristine (OncoTCS 0.5 mg/kg i.v.) then INEX 324 pINEX-IL-12 100 μg DNA i.v.
Procedure: C57 BL/6 mice are seeded subcutaneously with MCA 207 tumor cells. Tumor seeding is performed by standard techniques. Mice were seeded subcutaneously on the hip flank with 100,000 MCA-207 fibrosarcoma tumor cells by sub-cutaneous injection on day zero.
On days 7-10, when tumors had developed to useable sizes, mice were injected i.v. via tail vein with approximately 0.5 mg/kg of OncoTCS ([…]).
At 8, 16, 24, 30, 36, 42 or […] after OncoTCS treatment, the mice were injected i.v. via tail vein with INEX 324 (100 μg DNA pINEX-IL-12 with about 500 μg lipid all in about 200 μL total volume). Control mice received HBS.

MCA 207 tumor [2] = test: Tumor growth, combination with INEX 303 pINEX-TK10 and ganciclovir; assay type: in vivo, C57 BL/6 mice; conditions: OncoTCS 0.5 mg/kg i.v. then INEX 303 pINEX-TK10 i.v. and ganciclovir i.p.
Procedure: C57 BL/6 mice are seeded subcutaneously with MCA 207 tumor cells. Tumor seeding is performed by standard techniques. Mice are seeded subcutaneously on the hip flank with 100,000 MCA-207 fibrosarcoma tumor cells by […] injection on day zero. The tumor cells are cultivated and prepared according to standard techniques using RPMI media with 10% Fetal Bovine Serum (see, for example, Current Protocols in Molecular Biology, Eds. Ausubel, F. M., et al.)
At 8, 16, 24, 30, 36, 42 or […] after OncoTCS treatment, the mice are injected i.v. via tail vein with INEX 303 containing pINEX-TK10 prepared as described herein (100 μg DNA with about 500 μg lipid all in about 200 μL total volume). Control mice receive HBS.
1 mg ganciclovir, which is in 200 μL PBS (approximately 50 mg/kg; commercially available from Hoffman La Roche) is administered by intraperitoneal injection 12 h and 24 h after SPLP administration.

SK-OV-3 cells [3] = test: Cell cycle status by propidium iodide flow cytometry; assay type: cell-based, human
Procedure: (§1) SK-OV-3 or HeLa-luc cells were seeded at a density of 30,000 cells per well in a 24 well plate in growth media 24 hours prior to treatment with aphidicolin. Aphidicolin (Sigma) was reconstituted in phosphate buffered saline containing 0.5% DMSO. Cells were incubated with aphidicolin at a final concentration of 5 μg/mL in 1 mL of media per well for 16 hours prior to transfection. Transfection was accomplished by the addition of 0.5 μg of formulated DNA to each well.
The cell cycle status of cultures was determined by flow cytometry of permeabilized cells that were stained with propidium iodide. Prior to harvesting, media was aspirated and the cells were washed twice with 2 mL phosphate buffered saline (PBS). After washing, 2-3 drops of pre-warmed trypsin-EDTA (0.25% trypsin, 1 mM EDTA; Gibco BRL) was added to each well and the plate was incubated at 37° C. until the cells had detached from the plate. Trypsin was inactivated by the addition of 1.5 mL of cold media; The samples were transferred to 6 mL polystyrene tubes (Becton-Dickenson, San Jose, Calif., USA) and centrifuged at 2000 rpm for 5 min (Beckman GS-6R, rotor GH3.8). Cells were fixed and permeabilized by incubation for 10 min in 70% methanol (pre-chilled to −70° C.). Samples were then centrifuged at 2000 rpm for 5 min and the cells were incubated in 0.5 mL of 150 μg/mL propidium iodide (Molecular Probes, Eugene, Oreg.) in PBS for 30 minutes on ice in the dark prior to analysis by flow cytometry. 5,000 cells were analyzed in the FL2 channel (λemission=585+/−21 nm) of a FACSort flow cytometer (Becton-Dickinson, San Jose, Calif.) equipped with an Ar- ion laser (λexcitation=488 nm)

SK-OV-3 cells [4] = test: Uptake of YOYO-1 labeled plasmid lipoplexes by flow cytometry; assay type: cell-based, human; conditions: aphidicolin 5 μg/mL 16 hr; vs control cells
Procedure: as §1
For the plasmid DNA uptake experiments, the method previously described (Zabner, et al., J. Biol. Chem., 270:18997-19007 (1995); Tseng, et al., Biotechnol. Bioeng., 50:548-554 (1996)) using fluorescently labeled DNA and flow cytometry was used with the following modifications. Plasmid DNA was fluorescently labeled by incubation with YOYO-1 iodide (Molecular Probes, Eugene, Oreg.) at a dye:basepair ratio of […] for 10 minutes at 4° C. The sample was then dialyzed twice against autoclaved deionized water.
Lipoplexes were prepared using YOYO-1 labeled DNA and incubated with cells. […] Fluorescence was measured in the FL1 channel (λemission=530+/−15 nm) of a FACSort flow cytometer (Becton-Dickinson, San Jose, Calif.) equipped with an Ar- ion laser (λexcitation=488 nm). Data was collected from 10,000 cells and analyzed for fluorescence using CellQuest software.

HeLa-luc cells = test: Luciferase gene expression in stably transfected HeLa-luc cells; assay type: cell-based, human; conditions: HeLa-luc, 0, 6 and 24 hours after arrest vs untreated control cells
Procedure: SK-OV-3 cells human ovarian tumor cells, ATCC) were cultured in RPMI 1640 media (StemCell Technologies, Vancouver, B.C.) supplemented with 10% fetal bovine serum (Intergen). HeLa-luc cells were stably transfected with a luciferase reporter plasmid and cultured in Dulbecco's modified Eagle medium (StemCell Technologies, Vancouver, B.C.) supplemented with 10% fetal bovine serum and 400 μg/mL Geneticin (Gibco BRL).
as §1
(§2) Luciferase assays were performed using the Luciferase Assay System kit (Promega, Madison, Wis.) according to the manufacturer's protocol. […] A standard curve was determined by assaying 20 μL of serial dilutions of a 1 mg/mL luciferase standard (Boehringer Mannheim). […] Absorbance was monitored at 570 nm (Dynatech MR5000 plate reader) and protein content calculated using a standard curve of varying concentrations of BSA.

SK-OV-3 cells [5] = test: Lipid mediated transfection (lipoplexes or SPLPs), luciferase activity; assay type: cell-based, human; conditions: for increase in luciferase expression, (+/−) vs (−/−) culture: peak; for difference in luciferase activity between (−/−) and (+/+) cultures: 26 hrs
Procedure: Lipoplexes were prepared as follows: All reagents were sterile and cooled to 4° C. prior to complex preparation. A solution containing 62 μM dioleoyldimethylammonium chloride: 1,2-sn-dioleoylphosphatidylethanolamine (DODAC:DOPE) large unilamellar vesicles (LUVs) and a solution containing 10 μg/mL plasmid DNA were prepared in distilled water. The DNA was added to an equal volume of lipid dropwise, while vortexing. The solution was incubated on ice for 30 minutes prior to transfection. The resulting lipoplexes contained a final DNA concentration of 0.5 μg/100 μL and the cationic lipid:DNA (+:−) charge ratio was 1:1.
Plasmid containing a therapeutic gene was encapsulated as SPLP using the detergent dialysis method of INEX 351. The SPLP contained 42.5:42.5:15 mol % of DOPE:DODAC:1-O-[2′-(w-methoxypolyethyleneglycol) succinoyl]-2-N-octoylsphingosine, (PEG-CerC8), at a lipid:DNA ratio of 15:1 (w/w). SPLPs were separated from empty liposomes by centrifugation through a discontinuous sucrose gradient.
as §1
Luciferase assays were performed using the Luciferase Assay System kit (Promega, Madison, Wis.) according to the manufacturer's protocol. Cell samples were washed twice with PBS, lysed by incubation with 200 μL of lysis buffer (0.1% triton in 250 mM NaH2PO4, pH 7.4) for 20 min. 20 μL of cell lysate was assayed (in duplicate) using a mL3000 microtiter plate luminometer (Dynex Technologies). A standard curve was determined by assaying 20 μL of serial dilutions of a 1 mg/mL luciferase standard (Boehringer Mannheim). Cell lysate was assayed for protein content using the bicinchoninic acid (BCA) colorimetric method. Briefly, in a 96 well plate, 95 μL of water and 100 μL of the Micro BCA protein assay working reagent (Pierce) were added to 5 μL of cell lysate. The plates were shaken on a rotary platform at 100 rpm for 10 minutes before being incubated at 37° C. for 2 hours. Absorbance was monitored at 570 nm (Dynatech MR5000 plate reader) and protein content calculated using a standard curve of varying concentrations of BSA.

SK-OV-3 cells [6] = test: Semliki Forest Virus (SFV-luc) mediated luciferase gene expression; assay type: cell-based, human; conditions: SFV-luc m.o.i. 0.5
Procedure: as §1
Luciferase cDNA was cloned into the multiple cloning site of pSFV 1-3. Recombinant virus encoding luciferase was prepared according to the protocol described by Liljestrom and Garoff (Maniatis, et al., Molecular Cloning, Cold Spring Harbor, N.Y., 1981, pp. 93-94). Prior to infection of SK-OV-3 cells, virus particles were activated in 0.5 mg/mL chymotrypsin for 30 minutes at room temperature. Chymotrypsin was inactivated by the addition of aprotinin to a final concentration of 0.67 mg/mL. […]
as §2

[7] = (+/−) cultures, 1 hr exposure, either formulation

N.N.[Cl][Pt][Cl] [Cisplatin]
expression of plasmid delivered directly to tumor cells after drug treatment (tumor cells): improved expression

CC[C@]1(O)C[C@H]2CN(CCc3c([nH]c4ccccc34)[C@@](C(=O)OC)(c3cc4c(cc3OC)N(C=O)[C@H]3[C@@](O)(C(=O)OC)[C@H](OC(C)=O)[C@]5(CC)C=CCN6CC[C@]43[C@@H]65)C2)C1 [Vincristine]
tumor growth (MCA 207 tumor [1]): Tumor growth is inhibited and regression in tumor size is visible
expression of plasmid delivered directly to tumor cells after drug treatment (tumor cells): not found to be effective
tumor growth vs HSV-TK/ganciclovir system alone (MCA 207 tumor [2]): inhibits growth of tumors and promotes tumor regression to a significantly greater degree

C[C@@]1(CO)[C@H](O)CC[C@@]2(C)[C@H]1CC[C@H]1C[C@@H]3C[C@@]12CC[C@]3(O)CO [aphidicolin]
cells in the G2/M phase, (+/−) culture (SK-OV-3 cells [3]; 16 hrs after removal of aphidicolin block): approximately 85%
cells progressed into the G1 phase after mitotic division, (+/−) culture (SK-OV-3 cells [3]; 22 hrs after removal of aphidicolin block): ~45%
cells remaining arrested in the G1 phase, (+/+) culture (SK-OV-3 cells [3]; end of the 24 incubation with lipoplexes, continued aphidicolin): approximately 95%
cells remaining arrested in the G1 phase, (+/+) cultures (SK-OV-3 cells [3]; throughout kinetics experiments (to 26 hrs) with lipoplexes or SPLPs): 95%
effect of cell cycle arrest on internalization of lipoplexes (SK-OV-3 cells [4]): does not affect the internalization of lipoplexes
effect on level of luciferase gene expression (HeLa-luc cells): did not significantly affect
time after removal of aphidicolin at which luciferase expression begins to increase (SK-OV-3 cells [5]; [7]): approximately 10 hours
time after removal of aphidicolin of maximum luciferase expression (SK-OV-3 cells [5]; [7]): 12 h
increase in luciferase expression, (+/−) vs (−/−) culture (SK-OV-3 cells [5]; SPLPs, 1 hr exposure): 8 fold
difference in luciferase activity between (−/−) and (+/+) cultures (SK-OV-3 cells [5]; SPLPs): 20 fold
increase in luciferase expression, (+/−) vs (−/−) culture (SK-OV-3 cells [5]; lipoplexes, 1 hr exposure): 3 fold
decrease in luciferase gene expression, (+/+) culture (SK-OV-3 cells [5]; lipoplexes, 24 hrs continuous exposure, continued aphidicolin): 20 fold
luciferase expression of (+/−) cultures vs (−/−) control (SK-OV-3 cells [5]; lipoplexes, 24 hrs, aphidicolin removed): did not differ significantly
difference in luciferase activity between (−/−) and (+/+) cultures (SK-OV-3 cells [5]; lipoplexes): approximately 40 fold
pattern of SFV-luc gene expression between (−/−), (+/−) and (+/+) cultures (SK-OV-3 cells [6]): no significant difference
